From ChEMBL document CHEMBL3286240, “Inhibition of Enterococcus faecalis biofilm formation by highly active lactones and lactams analogues of rubrolides” (Eur J Med Chem, 2014)
≈ marks a conversion by molar mass, not a printed value.

Each compound was assayed on Enterococcus faecalis (assay: Antimicrobial activity against Enterococcus faecalis assessed as bacterial growth at 87.5 ug/ml after 20 hrs by microtiter plate assay).
Format: functional

Row | SMILES | Activity [%]
1 | COc1ccc(Br)cc1C1=C(Br)C(=O)N(CC(C)C)/C1=C/c1cccc(Cl)c1 | 98.2
2 | COc1ccc(Br)cc1C1=C(Br)C(=O)N(CC(C)C)C1(O)Cc1ccc(Br)cc1 (stereo unspecified) | 42.4
3 | COc1cccc(CC2(O)C(c3cc(Cl)ccc3OC)=C(Br)C(=O)N2CC(C)C)c1 (stereo unspecified) | 60.6
4 | COc1ccc(C)cc1C1=C(Br)C(=O)N(CC(C)C)/C1=C\c1cccc(Cl)c1 | 64.5
5 | COc1cccc(/C=C2/C(c3cc(Cl)ccc3OC)=C(Br)C(=O)N2CC(C)C)c1 | 94.6
6 | COc1ccc(C)cc1C1=C(Br)C(=O)N(CC(C)C)C1(O)Cc1ccccc1Cl (stereo unspecified) | 86.4
7 | COc1ccc(C)cc1C1=C(Br)C(=O)O/C1=C\c1ccccc1Cl | 63.8
8 | COc1ccccc1C1=C(Br)C(=O)N(CC(C)C)C1(O)Cc1ccc(C(F)(F)F)cc1 (stereo unspecified) | -24.6

Each compound was assayed on Enterococcus faecalis (assay: Antimicrobial activity against Enterococcus faecalis assessed as bacterial growth at 21.9 ug/ml after 20 hrs by microtiter plate assay).
Format: functional

Row | SMILES | Activity [%]
9 | COc1ccc(Br)cc1C1=C(Br)C(=O)N(CC(C)C)/C1=C/c1cccc(Cl)c1 | 67.3
10 | COc1ccc(Br)cc1C1=C(Br)C(=O)N(CC(C)C)C1(O)Cc1ccc(Br)cc1 (stereo unspecified) | 15.8
11 | COc1cccc(CC2(O)C(c3cc(Cl)ccc3OC)=C(Br)C(=O)N2CC(C)C)c1 (stereo unspecified) | 21.6
12 | COc1ccc(C)cc1C1=C(Br)C(=O)N(CC(C)C)/C1=C\c1cccc(Cl)c1 | 46.8
13 | COc1cccc(/C=C2/C(c3cc(Cl)ccc3OC)=C(Br)C(=O)N2CC(C)C)c1 | 45.7
14 | COc1ccc(C)cc1C1=C(Br)C(=O)N(CC(C)C)C1(O)Cc1ccccc1Cl (stereo unspecified) | 46
15 | COc1ccc(C)cc1C1=C(Br)C(=O)O/C1=C\c1ccccc1Cl | 18.2
16 | COc1ccccc1C1=C(Br)C(=O)N(CC(C)C)C1(O)Cc1ccc(C(F)(F)F)cc1 (stereo unspecified) | -7

The compounds below were run on Enterococcus faecalis (assay: Antimicrobial activity against Enterococcus faecalis assessed as bacterial growth at 1.37 ug/ml after 20 hrs by microtiter plate assay).
Format: functional

Row | SMILES | Activity [%]
17 | COc1ccc(Br)cc1C1=C(Br)C(=O)N(CC(C)C)/C1=C/c1cccc(Cl)c1 | 33
18 | COc1ccc(Br)cc1C1=C(Br)C(=O)N(CC(C)C)C1(O)Cc1ccc(Br)cc1 (stereo unspecified) | 3.2
19 | COc1cccc(CC2(O)C(c3cc(Cl)ccc3OC)=C(Br)C(=O)N2CC(C)C)c1 (stereo unspecified) | 3
20 | COc1ccc(C)cc1C1=C(Br)C(=O)N(CC(C)C)/C1=C\c1cccc(Cl)c1 | 11.9
21 | COc1cccc(/C=C2/C(c3cc(Cl)ccc3OC)=C(Br)C(=O)N2CC(C)C)c1 | 21
22 | COc1ccc(C)cc1C1=C(Br)C(=O)N(CC(C)C)C1(O)Cc1ccccc1Cl (stereo unspecified) | 19.1
23 | COc1ccc(C)cc1C1=C(Br)C(=O)O/C1=C\c1ccccc1Cl | 27.1
24 | COc1ccccc1C1=C(Br)C(=O)N(CC(C)C)C1(O)Cc1ccc(C(F)(F)F)cc1 (stereo unspecified) | 3.4

The compounds below were run on Enterococcus faecalis (assay: Antimicrobial activity against Enterococcus faecalis assessed as bacterial growth at 10.9 ug/ml after 20 hrs by microtiter plate assay).
Format: functional

Row | SMILES | Activity [%]
25 | COc1ccc(Br)cc1C1=C(Br)C(=O)N(CC(C)C)/C1=C/c1cccc(Cl)c1 | 57.3
26 | COc1ccc(Br)cc1C1=C(Br)C(=O)N(CC(C)C)C1(O)Cc1ccc(Br)cc1 (stereo unspecified) | 10.4
27 | COc1cccc(CC2(O)C(c3cc(Cl)ccc3OC)=C(Br)C(=O)N2CC(C)C)c1 (stereo unspecified) | 19.8
28 | COc1ccc(C)cc1C1=C(Br)C(=O)N(CC(C)C)/C1=C\c1cccc(Cl)c1 | 34.4
29 | COc1cccc(/C=C2/C(c3cc(Cl)ccc3OC)=C(Br)C(=O)N2CC(C)C)c1 | 39.3
30 | COc1ccc(C)cc1C1=C(Br)C(=O)N(CC(C)C)C1(O)Cc1ccccc1Cl (stereo unspecified) | 43.8
31 | COc1ccc(C)cc1C1=C(Br)C(=O)O/C1=C\c1ccccc1Cl | 5.1
32 | COc1ccccc1C1=C(Br)C(=O)N(CC(C)C)C1(O)Cc1ccc(C(F)(F)F)cc1 (stereo unspecified) | 22.7

These compounds were tested on Enterococcus faecalis (assay: Antimicrobial activity against Enterococcus faecalis assessed as bacterial growth at 0.68 ug/ml after 20 hrs by microtiter plate assay).
Format: functional

Row | SMILES | Activity [%]
33 | COc1ccc(Br)cc1C1=C(Br)C(=O)N(CC(C)C)/C1=C/c1cccc(Cl)c1 | 23.5
34 | COc1ccc(Br)cc1C1=C(Br)C(=O)N(CC(C)C)C1(O)Cc1ccc(Br)cc1 (stereo unspecified) | 6.3
35 | COc1cccc(CC2(O)C(c3cc(Cl)ccc3OC)=C(Br)C(=O)N2CC(C)C)c1 (stereo unspecified) | 4
36 | COc1ccc(C)cc1C1=C(Br)C(=O)N(CC(C)C)/C1=C\c1cccc(Cl)c1 | 11.6
37 | COc1cccc(/C=C2/C(c3cc(Cl)ccc3OC)=C(Br)C(=O)N2CC(C)C)c1 | 5.9
38 | COc1ccc(C)cc1C1=C(Br)C(=O)N(CC(C)C)C1(O)Cc1ccccc1Cl (stereo unspecified) | -12.4
39 | COc1ccc(C)cc1C1=C(Br)C(=O)O/C1=C\c1ccccc1Cl | 33.9
40 | COc1ccccc1C1=C(Br)C(=O)N(CC(C)C)C1(O)Cc1ccc(C(F)(F)F)cc1 (stereo unspecified) | 11.3

Each compound was assayed on Enterococcus faecalis (assay: Antimicrobial activity against Enterococcus faecalis assessed as bacterial growth at 5.5 ug/ml after 20 hrs by microtiter plate assay).
Format: functional

Row | SMILES | Activity [%]
41 | COc1ccc(Br)cc1C1=C(Br)C(=O)N(CC(C)C)/C1=C/c1cccc(Cl)c1 | 48.8
42 | COc1ccc(Br)cc1C1=C(Br)C(=O)N(CC(C)C)C1(O)Cc1ccc(Br)cc1 (stereo unspecified) | 8.4
43 | COc1cccc(CC2(O)C(c3cc(Cl)ccc3OC)=C(Br)C(=O)N2CC(C)C)c1 (stereo unspecified) | -8
44 | COc1ccc(C)cc1C1=C(Br)C(=O)N(CC(C)C)/C1=C\c1cccc(Cl)c1 | 31.1
45 | COc1cccc(/C=C2/C(c3cc(Cl)ccc3OC)=C(Br)C(=O)N2CC(C)C)c1 | 42.5
46 | COc1ccc(C)cc1C1=C(Br)C(=O)N(CC(C)C)C1(O)Cc1ccccc1Cl (stereo unspecified) | 41.6
47 | COc1ccc(C)cc1C1=C(Br)C(=O)O/C1=C\c1ccccc1Cl | 19.1
48 | COc1ccccc1C1=C(Br)C(=O)N(CC(C)C)C1(O)Cc1ccc(C(F)(F)F)cc1 (stereo unspecified) | 18.1

What follows are compounds tested on Enterococcus faecalis (assay: Antimicrobial activity against Enterococcus faecalis assessed as bacterial growth at 43.8 ug/ml after 20 hrs by microtiter plate assay).
Format: functional

Row | SMILES | Activity [%]
49 | COc1ccc(Br)cc1C1=C(Br)C(=O)N(CC(C)C)/C1=C/c1cccc(Cl)c1 | 75.5
50 | COc1ccc(Br)cc1C1=C(Br)C(=O)N(CC(C)C)C1(O)Cc1ccc(Br)cc1 (stereo unspecified) | 28.1
51 | COc1cccc(CC2(O)C(c3cc(Cl)ccc3OC)=C(Br)C(=O)N2CC(C)C)c1 (stereo unspecified) | 38.2
52 | COc1ccc(C)cc1C1=C(Br)C(=O)N(CC(C)C)/C1=C\c1cccc(Cl)c1 | 61.8
53 | COc1cccc(/C=C2/C(c3cc(Cl)ccc3OC)=C(Br)C(=O)N2CC(C)C)c1 | 55.6
54 | COc1ccc(C)cc1C1=C(Br)C(=O)N(CC(C)C)C1(O)Cc1ccccc1Cl (stereo unspecified) | 63.4
55 | COc1ccc(C)cc1C1=C(Br)C(=O)O/C1=C\c1ccccc1Cl | 28.8
56 | COc1ccccc1C1=C(Br)C(=O)N(CC(C)C)C1(O)Cc1ccc(C(F)(F)F)cc1 (stereo unspecified) | -1.2

These compounds were tested on Enterococcus faecalis (assay: Antimicrobial activity against Enterococcus faecalis assessed as bacterial growth at 2.73 ug/ml after 20 hrs by microtiter plate assay).
Format: functional

Row | SMILES | Activity [%]
57 | COc1ccc(Br)cc1C1=C(Br)C(=O)N(CC(C)C)/C1=C/c1cccc(Cl)c1 | 42.5
58 | COc1ccc(Br)cc1C1=C(Br)C(=O)N(CC(C)C)C1(O)Cc1ccc(Br)cc1 (stereo unspecified) | 8.9
59 | COc1cccc(CC2(O)C(c3cc(Cl)ccc3OC)=C(Br)C(=O)N2CC(C)C)c1 (stereo unspecified) | 9.5
60 | COc1ccc(C)cc1C1=C(Br)C(=O)N(CC(C)C)/C1=C\c1cccc(Cl)c1 | 14.5
61 | COc1cccc(/C=C2/C(c3cc(Cl)ccc3OC)=C(Br)C(=O)N2CC(C)C)c1 | 29.1
62 | COc1ccc(C)cc1C1=C(Br)C(=O)N(CC(C)C)C1(O)Cc1ccccc1Cl (stereo unspecified) | 35.4
63 | COc1ccc(C)cc1C1=C(Br)C(=O)O/C1=C\c1ccccc1Cl | 19.9
64 | COc1ccccc1C1=C(Br)C(=O)N(CC(C)C)C1(O)Cc1ccc(C(F)(F)F)cc1 (stereo unspecified) | 8.4

Each compound was assayed on Enterococcus faecalis (assay: Antimicrobial activity against Enterococcus faecalis assessed as bacterial growth at 0.34 ug/ml after 20 hrs by microtiter plate assay).
Format: functional

Row | SMILES | Activity [%]
65 | COc1ccc(Br)cc1C1=C(Br)C(=O)N(CC(C)C)/C1=C/c1cccc(Cl)c1 | 20.1
66 | COc1ccc(Br)cc1C1=C(Br)C(=O)N(CC(C)C)C1(O)Cc1ccc(Br)cc1 (stereo unspecified) | 10
67 | COc1cccc(CC2(O)C(c3cc(Cl)ccc3OC)=C(Br)C(=O)N2CC(C)C)c1 (stereo unspecified) | 1
68 | COc1ccc(C)cc1C1=C(Br)C(=O)N(CC(C)C)/C1=C\c1cccc(Cl)c1 | 6.9
69 | COc1cccc(/C=C2/C(c3cc(Cl)ccc3OC)=C(Br)C(=O)N2CC(C)C)c1 | 2.5
70 | COc1ccc(C)cc1C1=C(Br)C(=O)N(CC(C)C)C1(O)Cc1ccccc1Cl (stereo unspecified) | -15.6
71 | COc1ccc(C)cc1C1=C(Br)C(=O)O/C1=C\c1ccccc1Cl | 29.9
72 | COc1ccccc1C1=C(Br)C(=O)N(CC(C)C)C1(O)Cc1ccc(C(F)(F)F)cc1 (stereo unspecified) | 1.7

These compounds were tested on Enterococcus faecalis (assay: Antimicrobial activity against Enterococcus faecalis assessed as bacterial growth at 0.17 ug/ml after 20 hrs by microtiter plate assay).
Format: functional

Row | SMILES | Activity [%]
73 | COc1ccc(Br)cc1C1=C(Br)C(=O)N(CC(C)C)/C1=C/c1cccc(Cl)c1 | 16.1
74 | COc1ccc(Br)cc1C1=C(Br)C(=O)N(CC(C)C)C1(O)Cc1ccc(Br)cc1 (stereo unspecified) | -8
75 | COc1cccc(CC2(O)C(c3cc(Cl)ccc3OC)=C(Br)C(=O)N2CC(C)C)c1 (stereo unspecified) | -4
76 | COc1ccc(C)cc1C1=C(Br)C(=O)N(CC(C)C)/C1=C\c1cccc(Cl)c1 | 6
77 | COc1cccc(/C=C2/C(c3cc(Cl)ccc3OC)=C(Br)C(=O)N2CC(C)C)c1 | 0.2
78 | COc1ccc(C)cc1C1=C(Br)C(=O)N(CC(C)C)C1(O)Cc1ccccc1Cl (stereo unspecified) | -3.7
79 | COc1ccc(C)cc1C1=C(Br)C(=O)O/C1=C\c1ccccc1Cl | 21
80 | COc1ccccc1C1=C(Br)C(=O)N(CC(C)C)C1(O)Cc1ccc(C(F)(F)F)cc1 (stereo unspecified) | 1.9

Each compound was assayed on Enterococcus faecalis (assay: Antimicrobial activity against Enterococcus faecalis assessed as inhibition of biofilm formation after 20 hrs by crystal violet staining analysis).
Format: functional, organism-based

Row | SMILES | IC50 [µg/mL]
81 | COc1ccc(Br)cc1C1=C(Br)C(=O)N(CC(C)C)/C1=C/c1cccc(Cl)c1 | 3.46 (≈ 6.58 µM)
82 | COc1ccc(Br)cc1C1=C(Br)C(=O)N(CC(C)C)C1(O)Cc1ccc(Br)cc1 (stereo unspecified) | 33.4 (≈ 56.8 µM)
83 | COc1cccc(CC2(O)C(c3cc(Cl)ccc3OC)=C(Br)C(=O)N2CC(C)C)c1 (stereo unspecified) | > 87.5
84 | COc1ccc(C)cc1C1=C(Br)C(=O)N(CC(C)C)/C1=C\c1cccc(Cl)c1 | 62.6 (≈ 136 µM)
85 | COc1cccc(/C=C2/C(c3cc(Cl)ccc3OC)=C(Br)C(=O)N2CC(C)C)c1 | 1.46 (≈ 3.06 µM)
86 | COc1ccc(C)cc1C1=C(Br)C(=O)N(CC(C)C)C1(O)Cc1ccccc1Cl (stereo unspecified) | 1.07 (≈ 2.23 µM)
